Read-outs that look alike come from different tables or passages of the source.

Data set [1] can be described thus: Phase 1 crossover drug-drug interaction study, plasma pharmacokinetics by HPLC-MS/MS, non-compartmental analysis.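 For all read-outs here: blood sampled at steady state on final dosing day, predose through 24 h after dose, study drug given shortly after standardized breakfast, with isotopically labeled internal standards.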 Particulars: for effect of coadministered LDV/SOF on exposure (C max, AUC tau): LDV/SOF + R/F/TAF vs R/F/TAF; for effect of coadministered LDV/SOF on exposure (C max, AUC tau) / effect of coadministered R/F/TAF on exposure (C max, AUC tau): result in words; for C tau / AUC / Cmax / AUC(0-t): mean (%CV); for AUC / Cmax / Tmax / half-life / AUC(0-t): human; for AUC: AUCtau, healthy subjects, fed, multiple dose; for Cmax: C max; for Tmax: T max; for effect of coadministered R/F/TAF on exposure (C max, AUC tau): LDV/SOF + R/F/TAF vs LDV/SOF; for AUC(0-t): AUClast.
Procedure: (§1) This study was a randomized, open‐label, single‐center, multiple‐dose, 3‐way, 6‐sequence, crossover Phase 1 study in healthy adults under fed conditions (approximately 600 calories, 27% fat). The treatments were LDV/SOF 90/400 mg (Treatment A), R/F/TAF 25/200/25 mg (Treatment B), and LDV/SOF+R/F/TAF (Treatment C).
(§2) Patients were administered the study drug within 5 minutes of completing the standardized breakfast. Serial blood samples for PK assessments were collected on the last day of each dosing sequence at the following time points: predose (≤5 min), 0.25, 0.5, 0.75, 1, 1.5, 2, 3, 4, 4.5, 5, 6, 8, 10, 12, 18, and 24 hours after the administration of the dose. Subjects were restricted from food intake until after the 4‐hour PK blood sampling time point.
(§3) Plasma concentrations of LDV, SOF, GS‐566500, GS‐331007, RPV, FTC, TAF, and TFV were determined by validated high‐performance liquid chromatography/tandem mass spectrometry (HPLC–MS/MS) methods with multiple reaction monitoring and electrospray ionization in the positive mode for LDV, RPV, FTC, TAF, and TFV, and in the negative mode for SOF, GS‐566500, and GS‐331007. Isotopically labeled internal standards (^2H, ^13C, and/or ^15N) were used for each analyte. […] Concentrations below the calibrated ranges of the methods were reported as below the limit of quantitation (BLQ); samples with concentrations above the calibrated ranges of the methods were diluted with blank plasma prior to analysis and the appropriate dilution factor was applied to the result. For each method, the results of within‐run (intra‐assay) and between‐run (inter‐assay) precision assessments were reported as the coefficients of variation, each expressed as a percentage (%CV), and the results of accuracy assessments were reported as the relative error values expressed as percentages (%RE). […] The calibrated ranges of the method were 1–2000 ng/mL for LDV, 5–2500 ng/mL for SOF, 10–5000 ng/mL for GS‐566500 and GS‐331007, 1 to 500 ng/mL for RPV, 5 to 3000 ng/mL for FTC, 1 to 1000 ng/mL for TAF, and 0.3–300 ng/mL for TFV.
(§4) Samples BLQ of bioanalytical assays occurring before the achievement of the first quantifiable concentration were assigned a value of zero to prevent overestimation of the initial area under the plasma concentration–time curve (AUC) and at all other time points were treated as missing data in WinNonlin. For summary statistics, samples BLQ at predose time were zero and postdose time points were assigned one‐half the value of the lower limit of quantitation.
(§5) Pharmacokinetic parameters were estimated using standard non‐compartmental methods in conjunction with the linear/log trapezoidal rule (Phoenix WinNonlin®, version 6.3; Certara USA, Inc., Princeton, NJ).
(§6) The primary endpoints were the PK parameters AUCtau, C max, and C tau of RPV, FTC, LDV, and GS‐331007; AUClast and C max of TAF; AUCtau and C max of SOF and GS‐566500. The secondary endpoints were the PK parameters AUCtau, C max, and C tau of TFV; T max, Clast, and Tlast of RPV, FTC, TAF, TFV, LDV, SOF, GS‐566500, and GS‐331007.
(§7) Plasma concentrations and PK parameters were summarized by treatment using descriptive statistics.

The conditions of data set [2]: in vivo; for C max / T max / t 1/2: human.
Procedure: as §1, §2, §3, §4, §5, §6, §7
The next data set is described as follows: clinical. The following applies: human, in vivo; for AUC: AUCtau, healthy subjects, fed, multiple dose; for AUC / Cmax: plasma, mean (%CV); for Cmax: C max; for half-life: median (first quartile, third quartile).
The conditions of data set [3]: cited from earlier work.
Details of data set [4]: method as in German et al. 2014. Particulars: ref German et al. 2014, cited from earlier work.
[5] abbreviates: Reference: R/F/TAF (N = 42), plasma.
The mark [6] stands for this setting: Test: LDV/SOF + R/F/TAF (N = 42), plasma.
The mark [7] stands for this setting: plasma, oral, Reference: R/F/TAF (N = 42), plasma.
[8] abbreviates: plasma, oral, Test: LDV/SOF + R/F/TAF (N = 42), plasma.
The mark [9] stands for this setting: plasma, oral, t 1/2, Reference: R/F/TAF (N = 42), median (first quartile, third quartile).
Where [10] appears, read: plasma, oral, t 1/2, Test: LDV/SOF + R/F/TAF (N = 42), median (first quartile, third quartile).
The mark [11] stands for this setting: test LDV/SOF + R/F/TAF vs reference R/F/TAF.
Setting [12] is: Test: LDV/SOF + R/F/TAF (N = 42).
[13] abbreviates: t 1/2, Reference: LDV/SOF (N = 41).
[14] abbreviates: t 1/2, Test: LDV/SOF + R/F/TAF (N = 42).
The mark [15] stands for this setting: Reference: LDV/SOF (N = 41), median (first quartile, third quartile).
[16] abbreviates: test LDV/SOF + R/F/TAF vs reference LDV/SOF.
Where [17] appears, read: in vivo, Reference: R/F/TAF (N = 42), plasma.
[18] abbreviates: in vivo, Test: LDV/SOF + R/F/TAF (N = 42), plasma.

Procedure for clinical: as §1, §2, §3, §4, §5, §6, §7

Consider `Nc1nc(=O)n([C@@H]2CS[C@H](CO)O2)cc1F` [FTC, emtricitabine], for which the “effect of coadministered LDV/SOF on exposure (C max, AUC tau)” value (“effect of coadministered LDV/SOF” below) in data set [1] was “no effect”. Also, the results for the C tau in data set [1] (setting [5]) and in data set [1] (setting [6]) were 88 (28) ng/mL and 89 (25) ng/mL, respectively. The exposure (AUC) in data set [1] (setting [7]) and in data set [1] (setting [8]) was 10800 ng·h/mL throughout. Moreover, the Cmax in data set [1] (setting [7]) worked out at 1710 ng/mL; in data set [1] (setting [8]), 1650 ng/mL. In addition, the Tmax in data set [1] (plasma, oral, Reference: R/F/TAF (N = 42), median (first quartile, third quartile)) was 2.5 h; in data set [1] (plasma, oral, Test: LDV/SOF + R/F/TAF (N = 42), median (first quartile, third quartile)), 3 h. Besides, the values for the half-life in data set [1] (setting [9]) and in data set [1] (setting [10]) were 6.5 h and 5.1 h, respectively. Moreover, the “GLSM ratio (test/reference) of AUCtau” value in data set [1] (setting [11]) was found to be 100%. The “GLSM ratio (test/reference) of C max” value in data set [1] (setting [11]) amounted to 97%. Also, the “GLSM ratio (test/reference) of C tau” value in data set [1] (setting [11]) worked out at 102%.
Take `C[C@@]1(F)[C@H](O)[C@@H](CO)O[C@H]1n1ccc(=O)[nH]c1=O` [GS‐331007]: in data set [2], the C max is 884 (14) ng/mL; the T max is given as 4.5 (4.0, 4.5) h; the “t 1/2” value is on record as 16.7 (13.8, 21.9) h; the C tau was 340 (16) ng/mL.
In the case of `C[C@H](NP(=O)(O)OC[C@H]1O[C@@H](n2ccc(=O)[nH]c2=O)[C@](C)(F)[C@@H]1O)C(=O)O` [GS‐566500], in data set [2], the C max was 510 (20) ng/mL; the T max was 3.0 (2.0, 4.0) h; the “t 1/2” value is listed as 2.2 (2.0, 2.5) h.
On to `COC(=O)N[C@H](C(=O)N1CC2(CC2)C[C@H]1c1ncc(-c2ccc3c(c2)C(F)(F)c2cc(-c4ccc5nc([C@@H]6[C@H]7CC[C@H](C7)N6C(=O)[C@@H](NC(=O)OC)C(C)C)[nH]c5c4)ccc2-3)[nH]1)C(C)C` [LDV, ledipasvir], for which the AUC came to 11600 ng·h/mL in “clinical” (Reference: LDV/SOF (N = 41)) and 11900 ng·h/mL in “clinical” (setting [12]). Moreover, the Cmax in the data set “clinical” (Reference: LDV/SOF (N = 41)) is 647 ng/mL; in the data set “clinical” (setting [12]), 658 ng/mL. Also, the half-life was 32.6 h in “clinical” (setting [13]) and 31.3 h in “clinical” (setting [14]). Besides, the “effect of coadministered R/F/TAF on exposure (C max, AUC tau)” value is listed as “did not noticeably increase” in data set [1] and “no relevant effect” in data set [1] (listed as ledipasvir). For the same compound, the T max in data set [1] (setting [15]) was 4.5 (4.5, 5.0) h. The C tau in data set [1] (Reference: LDV/SOF (N = 41), plasma) is given as 420 (46) ng/mL; in data set [1] (setting [6]), 434 (47) ng/mL. Also, the “GLSM ratio (test/reference) of AUCtau” value in data set [1] (setting [16]) came to 102%. Moreover, the “GLSM ratio (test/reference) of C max” value in data set [1] (setting [16]) amounted to 101%. The “GLSM ratio (test/reference) of C tau” value in data set [1] (setting [16]) amounted to 102%.
Regarding `Cc1cc(/C=C/C#N)cc(C)c1Nc1ccnc(Nc2ccc(C#N)cc2)n1` [RPV, rilpivirine], the Tmax in the data set “clinical” is 5 h. Also, the “effect of coadministered LDV/SOF” value in data set [1] was “no effect”. Further, in data set [1] (setting [5]), the C tau is given as 109 (32) ng/mL. Besides, the T max in data set [1] (Test: LDV/SOF + R/F/TAF (N = 42), median (first quartile, third quartile)) is listed as 4.0 (4.0, 5.0) h. Besides, the C tau in data set [1] (setting [6]) is on record as 100 (26) ng/mL. For the same compound, in data set [1] (setting [7]), the AUC amounted to 3040 ng·h/mL and the Cmax is 203 ng/mL. Moreover, in data set [1] (setting [8]), the area under the curve (AUC) is 2860 ng·h/mL and the Cmax was 197 ng/mL. Further, the half-life in data set [1] (setting [9]) was 32.8 h. In data set [1] (setting [10]), the half-life was 30.4 h. For the same compound, in data set [1] (setting [11]), the “GLSM ratio (test/reference) of AUCtau” value was 95%, the “GLSM ratio (test/reference) of C max” value is on record as 97% and the “GLSM ratio (test/reference) of C tau” value is reported as 93%.
Take `CC(C)OC(=O)[C@H](C)N[P@](=O)(OC[C@H]1O[C@@H](n2ccc(=O)[nH]c2=O)[C@](C)(F)[C@@H]1O)Oc1ccccc1` [SOF, sofosbuvir]: the AUC came to 2910 ng·h/mL in the data set “clinical” (Reference: LDV/SOF (N = 41)) and 3070 ng·h/mL in the data set “clinical” (setting [12]). The Cmax stood at 1470 ng/mL in the data set “clinical” (Reference: LDV/SOF (N = 41)) and 1390 ng/mL in “clinical” (setting [12]). Also, the half-life in the data set “clinical” (setting [13]) and in “clinical” (setting [14]) was 0.5 h throughout. For the same compound, the “effect of coadministered R/F/TAF on exposure (C max, AUC tau)” value in data set [1] is listed as “did not noticeably increase”; in data set [1] (listed as sofosbuvir), “no relevant effect”. For the same compound, the T max in data set [1] (setting [15]) is 2.0 (1.5, 3.0) h. The “GLSM ratio (test/reference) of AUCtau” value in data set [1] (setting [16]) is given as 105%. Moreover, the “GLSM ratio (test/reference) of C max” value in data set [1] (setting [16]) is listed as 96%.
For the compound `CC(C)OC(=O)[C@H](C)N[P@](=O)(CO[C@H](C)Cn1cnc2c(N)ncnc21)Oc1ccccc1` [TAF, tenofovir alafenamide], the “lower plasma tenofovir exposure compared to TDF 300 mg” value in data set [3] (TAF 25 mg vs TDF 300 mg, reference not given) is ~ 90%. In addition, the “less plasma TFV exposures than TDF” value in data set [3] (TAF vs TDF, ref Sax et al. 2015, Zack et al. 2016, Gilead Sciences Inc, 2017b) is given as 80–90%. For the same compound, the “effect of coadministered LDV/SOF” value in data set [1] was “no effect”. For the same compound, in data set [1] (Reference: R/F/TAF (N = 42), median (first quartile, third quartile)), the “t 1/2” value was 0.5 (0.4, 0.6) h. In data set [1] (setting [17]), this compound showed an area under the curve AUC(0-t) of 277 ng·h/mL and a Cmax of 200 ng/mL. Further, in data set [1] (setting [18]), the exposure AUC(0-t) stood at 362 ng·h/mL and the Cmax amounted to 205 ng/mL. Besides, the Tmax in data set [1] (in vivo, Reference: R/F/TAF (N = 42), median (first quartile, third quartile)) came out at 1.5 h. For the same compound, the time of peak concentration (Tmax) in data set [1] (in vivo, Test: LDV/SOF + R/F/TAF (N = 42), median (first quartile, third quartile)) amounted to 1.8 h. In data set [1] (setting [11]), the “GLSM ratio (test/reference) of AUClast” value is 132% and the “GLSM ratio (test/reference) of C max” value amounted to 103%.
Consider `C[C@H](Cn1cnc2c(N)ncnc21)OCP(=O)(O)O` [TFV, tenofovir], for which, in data set [4] (R/F/TDF coadministered with LDV/SOF compared to R/F/TDF alone), the “increase in TFV exposure” value is recorded as 40%. For the same compound, the TFV exposure in data set [4] (R/F/TDF coadministered with LDV/SOF) is reported as 4,780 ng·h/mL. In addition, the C tau in data set [1] (setting [5]) was 9 (25) ng/mL. Further, the C tau in data set [1] (setting [6]) is 17 (22) ng/mL. Further, in data set [1] (setting [7]), the AUC was 268 ng·h/mL and the highest level (Cmax) was 16 ng/mL. Further, in data set [1] (setting [8]), the AUC stood at 467 ng·h/mL and the Cmax is 25 ng/mL. In data set [1] (setting [9]), this compound had a half-life of 32 h. The half-life in data set [1] (setting [10]) was 44.5 h. In addition, in data set [1] (setting [11]), the “GLSM ratio (test/reference) of AUCtau” value was found to be 175%, the “GLSM ratio (test/reference) of C max” value was determined as 162% and the “GLSM ratio (test/reference) of C tau” value came to 185%.
